Experimental data: ChEMBL document CHEMBL1201862, “PubChem BioAssay data set” (2004)
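Results reflect a 48-hour exposure of cells in 96-well plates to compound at five concentrations. Here, GI50 denotes the concentration required for 50% inhibition of growth.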 Calls of active or inactive are those of the source. Cut-off read from the data, not from the text of the source: active = GI50 up to about 1.1 µM and inactive = higher.

Columns and labels:
Test in all cases: DTP human tumour cell line panel, 48 h
RXF 393 = test system: RXF 393
HCT-15 = test system: HCT-15
SK-MEL-2 = test system: SK-MEL-2
KM12 = test system: KM12
SW-620 = test system: SW-620
SF-539 = test system: SF-539
Malme-3M = test system: Malme-3M
OVCAR-8 = test system: OVCAR-8
SN12C = test system: SN12C
A498 = test system: A498
SK-MEL-28 = test system: SK-MEL-28
T47D = test system: T47D
HL-60 = test system: HL-60
A549 = test system: A549
NCI-H522 = test system: NCI-H522
M14 = test system: M14
CAKI-1 = test system: CAKI-1
NCI-H460 = test system: NCI-H460
CCRF-CEM = test system: CCRF-CEM
MOLT-4 = test system: MOLT-4
SNB-19 = test system: SNB-19
COLO 205 = test system: COLO 205
Hs-578T = test system: Hs-578T
NCI-H23 = test system: NCI-H23
HOP-62 = test system: HOP-62
HT-29 = test system: HT-29
IGROV-1 = test system: IGROV-1
UACC-257 = test system: UACC-257
SR = test system: SR
PC-3 = test system: PC-3
HCT-116 = test system: HCT-116
MDA-MB-231 = test system: MDA-MB-231
OVCAR-4 = test system: OVCAR-4
LOX IMVI = test system: LOX IMVI
SF-295 = test system: SF-295
SF-268 = test system: SF-268
RPMI-8226 = test system: RPMI-8226
SK-MEL-5 = test system: SK-MEL-5
MCF7 = test system: MCF7
HCC 2998 = test system: HCC 2998
TK-10 = test system: TK-10
SK-OV-3 = test system: SK-OV-3
786-0 = test system: 786-0
MDA-N = test system: MDA-N
OVCAR-3 = test system: OVCAR-3
MDA-MB-435 = test system: MDA-MB-435
EKVX = test system: EKVX
ACHN = test system: ACHN
U-251 = test system: U-251
UACC-62 = test system: UACC-62
DU-145 = test system: DU-145
K562 = test system: K562
NCI/ADR-RES = test system: NCI/ADR-RES
OVCAR-5 = test system: OVCAR-5
BT-549 = test system: BT-549

N#Cc1[nH]c(=O)n(-c2cccc3ccccc23)c1N
GI50 (RXF 393): > 10 µM (inactive) | GI50 (HCT-15): > 10 µM | GI50 (SK-MEL-2): > 10 µM (inactive) | GI50 (KM12): > 10 µM (inactive) | GI50 (SW-620): > 10 µM (inactive) | GI50 (SF-539): > 10 µM (inactive) | GI50 (Malme-3M): > 10 µM (inactive) | GI50 (OVCAR-8): > 10 µM (inactive) | GI50 (SN12C): > 10 µM (inactive) | GI50 (A498): > 10 µM (inactive) | GI50 (SK-MEL-28): > 10 µM (inactive) | GI50 (T47D): > 10 µM (inactive) | GI50 (HL-60): > 10 µM (inactive) | GI50 (A549): > 10 µM (inactive) | GI50 (NCI-H522): > 10 µM (inactive) | GI50 (M14): > 10 µM (inactive) | GI50 (CAKI-1): > 10 µM (inactive) | GI50 (NCI-H460): > 10 µM (inactive) | GI50 (CCRF-CEM): > 10 µM (inactive) | GI50 (MOLT-4): > 10 µM (inactive) | GI50 (SNB-19): > 10 µM (inactive) | GI50 (COLO 205): > 10 µM (inactive) | GI50 (Hs-578T): > 10 µM (inactive) | GI50 (NCI-H23): > 10 µM (inactive) | GI50 (HOP-62): > 10 µM (inactive) | GI50 (HT-29): > 10 µM (inactive) | GI50 (IGROV-1): > 10 µM (inactive) | GI50 (UACC-257): > 10 µM (inactive) | GI50 (SR): > 10 µM (inactive) | GI50 (PC-3): > 10 µM (inactive) | GI50 (HCT-116): > 10 µM (inactive) | GI50 (MDA-MB-231): > 10 µM (inactive) | GI50 (OVCAR-4): > 10 µM (inactive) | GI50 (LOX IMVI): > 10 µM (inactive) | GI50 (SF-295): > 10 µM (inactive) | GI50 (SF-268): > 10 µM (inactive) | GI50 (RPMI-8226): 0.001 µM (active) | GI50 (SK-MEL-5): > 10 µM (inactive) | GI50 (MCF7): > 10 µM (inactive) | GI50 (HCC 2998): > 10 µM (inactive) | GI50 (TK-10): > 10 µM (inactive) | GI50 (SK-OV-3): > 10 µM (inactive) | GI50 (786-0): > 10 µM (inactive) | GI50 (MDA-N): > 10 µM (inactive) | GI50 (OVCAR-3): > 10 µM (inactive) | GI50 (MDA-MB-435): > 10 µM (inactive) | GI50 (EKVX): > 10 µM (inactive) | GI50 (ACHN): > 10 µM (inactive) | GI50 (U-251): > 10 µM (inactive) | GI50 (UACC-62): > 10 µM (inactive) | GI50 (DU-145): > 10 µM (inactive) | GI50 (K562): > 10 µM (inactive) | GI50 (NCI/ADR-RES): > 10 µM (inactive) | GI50 (OVCAR-5): > 10 µM (inactive) | GI50 (BT-549): 4.61 µM (inactive)
